Source: patent US5602099A, “δ opioid receptor antagonists” (Aktiebolaget Astra, priority 1993, dated 1997)
Read-outs that look alike come from different tables or passages of the source. Peptide text beside a SMILES is read from it.

Columns and labels:
δ opioid receptors = target: T1, δ opioid receptors (Mus musculus, UniProt P32300); assay: Mouse vas deferens (MVD) bioassay, antagonism of electrically evoked contraction inhibition by δ-selective agonists; type: tissue-based; details: MVD assay, means of 3-8 determinations
T1 construct: Bioassays Using Isolated Organ Preparations; from tissue; host or cells: mouse vas deferens (isolated organ)
Source text: (§1) a) Biosassys based on inhibition of electrically evoked contractions of the mouse vas deferens (MVD) and of the guinea pig ileum (GPI). In the GPI assay the opioid effect is primarily mediated by μ opioid receptors, whereas in the MVD assay the inhibition of the contractions is mostly due to interaction with δ opioid receptors.
(§2) The GPI and MVD bioassays were carded out as reported in P. W. Schiller et al., Biochem. Biophys. Res. Commun 85, 1332-1338 (1978) and J. Di Maio et al., J. Med. Chem. 25, 1432-1438 (1982). A log dose-response curve was determind with [Leu^5 ]enkephalin as standard for each ileum and vas preparation, and IC50 values of the compounds being tested were normalized according to A. A Waterfield et al., Eur. J. Pharmacol. 58, 11-18 (1979). […] These determinations were made with the MVD assay, using three different δ-selective agonists ([Leu^5 ] enkephalin, DPDPE and [D-Ala^2 ]deltorphin I].

μ opioid receptors [1] = target: T2, μ opioid receptors (Cavia porcellus, UniProt P97266); details: literature value; cited from earlier work
μ opioid receptors [2] = target: T2, μ opioid receptors; assay: Guinea pig ileum (GPI) bioassay, inhibition of electrically evoked contractions; type: cell-based; details: agonist potency
Source text: as §1, §2

μ opioid receptor = target: T3, μ opioid receptor (Rattus norvegicus, UniProt P33535); assay: μ opioid receptor binding assay, displacement of [3H]DAMGO from rat brain membranes
T3 construct: Male Sprague-Dawley rats (300-350 g) from the Canadian Breeding Laboratories were decapitated and after removal of the cerebellum the brains were homogenized; from tissue; host or cells: rat brain (without cerebellum) membranes, male Sprague-Dawley
Source text: (§3) In the case of κ-ligands guinea pig brain homogenates were used, since the relative proportion of κ-binding sites is higher in guinea pig brain than in rat brain. The experimental procedure being used in our laboratory represents a modified version of the binding assay described by Pasternak et al. (Mol. Pharmacol. 11, 340-351, (1975)). Male Sprague-Dawley rats (300-350 g) from the Canadian Breeding Laboratories were decapitated and after removal of the cerebellum the brains were homogenized in 30 volumes of ice-cold standard buffer (50 mM Tris-HCl, pH 7.7). After centrifugation at 30,000×g for 30 min at 4° C. the membranes were reconstituted in the original volume of standard buffer and incubated for 30 min at 37° C. (to realease bound endogenous ligands). […] The incubation was terminated by filtration through Batman GF/B filters under vacuum at 4° C. Following two washings with 5 ml portions of ice-cold standard buffer the filters were transferred to scintillation vials and treated with 1 ml Protosol (New England Nuclear) for 30 min prior to the addition of 0.5 ml acetic acid and 10 ml Aquasol (New England Nuclear). After shaking for 30 min the vials were counted at an efficiency of 40-45%. All experiments were performed in duplicates and repeated at least three times. […] Values of half-maximal inhibition (IC50) of specific binding were obtained graphically from semilogarithmic plots. From the measured IC50-values, binding inhibition constants (Ki) were then calculated based on Cheng and Prusoff's equation (Biochem, Pharmacol. 22, 3099-3102 (1973)). Ratios of the Ki -values in the μ-, δ- and κ-representative binding assays are a measure of the receptor selectivety of the compound under investigation (e.g. Ki^μ /Ki^δ indicates the selectivity for δ-receptors versus μ-receptors).

δ opioid receptor = target: T4, δ opioid receptor (Rattus norvegicus, UniProt P33533); assay: δ opioid receptor binding assay, displacement of δ-selective radioligand from rat brain membranes
T4 construct: Male Sprague-Dawley rats (300-350 g) from the Canadian Breeding Laboratories were decapitated and after removal of the cerebellum the brains were homogenized; from tissue; host or cells: rat brain (without cerebellum) membranes, male Sprague-Dawley
Source text: as §3

[3] = Ke (nM) against [Leu5]Enkephalin, δ agonist [Leu5]enkephalin
[4] = δ agonist DPDPE, read-out: Ke (nM) against DPDPE
[5] = Ke (nM) against DPDPE, δ agonist DPDPE
[6] = Ke (nM) against [D-Ala2]deltorphin I, δ agonist [D-Ala2]deltorphin I

T4 sequence (P33533 whole entry): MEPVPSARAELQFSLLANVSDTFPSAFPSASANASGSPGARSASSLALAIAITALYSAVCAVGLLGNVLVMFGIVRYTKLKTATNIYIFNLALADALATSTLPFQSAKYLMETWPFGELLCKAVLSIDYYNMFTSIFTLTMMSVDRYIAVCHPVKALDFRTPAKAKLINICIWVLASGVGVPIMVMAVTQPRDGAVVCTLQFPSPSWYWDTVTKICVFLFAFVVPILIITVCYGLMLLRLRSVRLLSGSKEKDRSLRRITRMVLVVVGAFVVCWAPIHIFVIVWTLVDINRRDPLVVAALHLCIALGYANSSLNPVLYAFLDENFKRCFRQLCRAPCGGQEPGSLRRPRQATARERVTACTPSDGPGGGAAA
T1 sequence (P32300 whole entry): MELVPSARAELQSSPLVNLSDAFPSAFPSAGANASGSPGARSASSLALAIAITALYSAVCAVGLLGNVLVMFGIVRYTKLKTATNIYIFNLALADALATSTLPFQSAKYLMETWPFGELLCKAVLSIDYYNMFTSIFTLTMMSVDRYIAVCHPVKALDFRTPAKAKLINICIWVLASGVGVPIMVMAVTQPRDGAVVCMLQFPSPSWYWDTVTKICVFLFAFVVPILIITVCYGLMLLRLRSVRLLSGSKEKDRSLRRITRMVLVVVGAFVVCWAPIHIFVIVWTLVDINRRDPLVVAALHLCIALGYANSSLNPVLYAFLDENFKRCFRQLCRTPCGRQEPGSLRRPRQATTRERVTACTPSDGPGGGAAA
T2 sequence (P97266 whole entry, looked up): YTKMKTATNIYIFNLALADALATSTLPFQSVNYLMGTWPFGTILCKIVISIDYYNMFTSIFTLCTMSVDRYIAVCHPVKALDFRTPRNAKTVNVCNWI
T3 sequence (P33535 whole entry): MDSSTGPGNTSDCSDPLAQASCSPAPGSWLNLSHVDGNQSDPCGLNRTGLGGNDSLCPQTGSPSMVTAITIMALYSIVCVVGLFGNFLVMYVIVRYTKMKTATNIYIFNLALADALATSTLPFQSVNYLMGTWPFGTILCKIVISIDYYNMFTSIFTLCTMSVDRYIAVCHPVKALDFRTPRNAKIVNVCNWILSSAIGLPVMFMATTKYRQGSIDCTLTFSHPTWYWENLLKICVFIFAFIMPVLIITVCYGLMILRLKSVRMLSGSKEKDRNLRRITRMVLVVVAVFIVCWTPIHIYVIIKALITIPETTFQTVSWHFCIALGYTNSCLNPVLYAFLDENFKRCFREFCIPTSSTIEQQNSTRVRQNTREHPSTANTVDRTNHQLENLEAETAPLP

Structure (SMILES)	Kb (δ opioid receptors; [3])	Kb (δ opioid receptors; [4])	Kb (δ opioid receptors; δ agonist [D-Ala2]deltorphin I, read-out: Ke (nM) against [D-Ala2]deltorphin I)	Ke (μ antagonist) in the guinea pig ileum (GPI) assay (μ opioid receptors [1])	Kb (δ opioid receptors; [5])	Kb (δ opioid receptors; [6])	IC50 (μ opioid receptors [2])	Ki (μ opioid receptor; rat brain membranes, means of 3 determinations, read-out: Ki^μ)	Ki (δ opioid receptor; rat brain membranes, means of 3 determinations, read-out: Ki^.xi.)	Ki (μ opioid receptor)	Ki (δ opioid receptor)	Ki^μ /Ki^δ (δ opioid receptor; δ-selectivity ratio)
Oc1ccc2c3c1O[C@H]1c4[nH]c5ccccc5c4C[C@@]4(O)[C@@H](C2)N(CC2CC2)CC[C@]314 [Naltrindole, naltrindole, reference compound]	0.85 nM	0.632 nM	0.636 nM	29 nM	–	–	–	–	–	–	–	–
Cc1cc(O)cc(C)c1C[C@H](N)C(=O)N1Cc2ccccc2C[C@H]1CN[C@@H](Cc1ccccc1)C(=O)N[C@@H](Cc1ccccc1)C(N)=O [HDmtTic.psi.[CH2NH]PhePheNH2, H-Dmt-Tic.PSI.[CH2 --NH]Phe-Phe-NH2]	0.47 nM	–	–	–	0.42 nM	0.486 nM	7.71 nM	–	–	–	–	–
NC(=O)[C@H](Cc1ccccc1)NC(=O)[C@H](Cc1ccccc1)NC(=O)[C@@H]1Cc2ccccc2CN1C(=O)[C@@H](N)Cc1ccc(O)cc1 [HTyrTicPhePheNH2, H-Tyr-Tic-Phe-Phe-NH2] (HELM PEPTIDE1{Y.[Tic].F.F.[am]}$$$$V2.0)	15.7 nM	18 nM	–	–	–	14.4 nM	–	78.8 nM	3 nM	–	–	–
N[C@@H](Cc1ccc(O)cc1)C(=O)N1Cc2ccccc2C[C@H]1C(=O)N[C@@H](CCc1ccccc1)C(=O)N[C@@H](Cc1ccccc1)C(=O)O [HTyrTicHfePheOH, H-Tyr-Tic-Hfe-Phe-OH] (HELM PEPTIDE1{Y.[Tic].[O=C([C@H](CCc1ccccc1)N[*:1])[*:2]].F}$$$$V2.0)	1.23 nM	–	–	–	0.609 nM	0.408 nM	–	–	–	1990 nM	0.277 nM	7180
